Reference: patent US5861414A, “Piperidineacetic acid derivatives useful as fibrinogen antagonist agent” (priority 1994, dated 1999)
Counter-ions that a name gives are not always drawn. Like-named read-outs stand apart in the source and are kept apart here.

System: human washed and resuspended platelets (HRP)
Assay: Inhibition of U-46619-induced platelet aggregation in washed human platelets (turbidometric, Born-type aggregometer)
Assay type: cell-based
Settings: read-out: IC50, concentration of the compound required to inhibit platelet aggregation by 50%
Description: Inhibition of platelet aggregation by compounds of the invention was determined according to the following procedure. […] The blood was treated with aspirin (0.1 mM) and prostacyclin (0.06 μM) prior to centrifugation (1400 g, 4 minutes, 20° C.). The supernatant platelet-rich plasma (PRP) was isolated and further centrifuged (1400 g, 10 minutes, 20° C.) to sediment the platelets. […] This platelet suspension was centrifuged (1400 g, 8 minutes, 20° C.) and the resultant platelet pellet was resuspended into the physiological salt solution adjusted to pH 7.4. The resultant washed-platelet preparation was diluted to give a final platelet count of […]. […] Platelet aggregation was quantified using a turbidometric method.

[1] = Homo sapiens, Platelet, washed human platelets, 37° C, 5 minutes pre-incubation, agonist 1 μM U-46619, fibrinogen 0.5 mg/ml

IC50 [1] [nM]	Structure (SMILES)	other results
126	O=C(O)CN1CCC(c2nn(Cc3ccc(F)cc3)c3cc(/C=C/C4CCNCC4)ccc23)CC1 [1 (xiii), {4-[1-(4-Fluoro-benzyl)-6-(2-piperidin-4-yl-(E)-vinyl)-1H-indazol-3-yl]-piperidin-1-yl}-acetic acid trifluoroacetate]	
107	O=C(O)CN1CCC(c2nn(Cc3ccccc3)c3cc(/C=C/C4CCNCC4)ccc23)CC1 [7 (ii), {4-[1-Benzyl-6-(2-piperidin-4-yl-(E)-vinyl)-1H-indazol-3-yl]-piperidin-1-yl}-acetic acid trifluoroacetate]	
80	O=C(O)CN1CCC(c2nn(Cc3ccc(Cl)cc3)c3cc(CCC4CCNCC4)ccc23)CC1 [5 (iii), {4-[1-(4-Chloro-benzyl)-6-(2piperidin-4-yl-ethyl)-1H-indazol-3-yl-piperidin-1-yl}-acetic acid trifluoroacetate]	
	O=C(O)CN1CCC(c2n[nH]c3cc(/C=C/C4CCNCC4)ccc23)CC1 [2 (iv), {4-[6-(2-Piperidin-4-yl-(E)-vinyl)-1H-indazol-3-yl]-piperidin-1-yl}-aceticacid, hydrochloride hydrate]	IC50 (Homo sapiens, Platelet): 67 nM
	O=C(O)CN1CCC(c2nn(Cc3ccc(F)cc3)c3cc(/C=C/C4CCNCC4)ccc23)CC1 [6 (ii), {4-[1-(4-Fluoro-benzyl)-6-(2-piperidin-4-yl-(E)-vinyl)-1H-indazol-3-yl]-piperidin-1-yl}-acetic acid hydrochloride]	IC50 (washed human platelets, 37° C, 5 minutes pre-incubation, agonist 1 μM U-46619, fibrinogen 0.5 mg/ml, hydrochloride): 110 nM
74	O=C(O)CN1CCC(c2nn(Cc3ccc(Cl)c(Cl)c3)c3cc(/C=C/C4CCNCC4)ccc23)CC1 [3 (ii), {4-[1-(3,4-Dichloro-benzyl)-6-(2-piperidin-4-yl-(E)-vinyl)-1H-indazol-3-yl]-piperidin-1-yl}-acetic acid trifluoroacetate]	
72	O=C(O)CN1CCC(c2nn(Cc3ccc(Cl)cc3)c3cc(/C=C/C4CCNCC4)ccc23)CC1 [4 (ii), (4-{1-(4-Chloro-benzyl)-6-[2-piperidin-4-yl-(E)-vinyl]-1H-indazol-3-yl}-piperidin-1-yl)-acetic acid trifluoroacetate]	

Structure (SMILES)	IC50 [1] [nM]	other results
O=C(O)CN1CCC(c2n[nH]c3cc(/C=C/C4CCNCC4)ccc23)CC1 [2 (ii), {4-[6-(2-Piperidin-4-yl-(E)-vinyl)-1H-indazol-3-yl]-piperidin-1-yl}-aceticacid trifluoroacetate]	92	
